ChEMBL document CHEMBL1201862, “PubChem BioAssay data set” (2004)
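Assay format: 96-well plates, 48-hour exposure. Here, GI50 denotes the concentration required for 50% inhibition of growth.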 The source made the active and inactive calls. Cut-off read from the data, not from the text of the source: active = GI50 up to about 1.1 µM and inactive = higher.

Key:
Assay in all cases: inhibition of tumour cell growth, NCI panel, 48 h
SK-OV-3 = tested on: SK-OV-3
MDA-MB-231 = tested on: MDA-MB-231
NCI/ADR-RES = tested on: NCI/ADR-RES
BT-549 = tested on: BT-549
UACC-257 = tested on: UACC-257
NCI-H226 = tested on: NCI-H226
ACHN = tested on: ACHN
HCT-15 = tested on: HCT-15
SK-MEL-5 = tested on: SK-MEL-5
NCI-H522 = tested on: NCI-H522
HT-29 = tested on: HT-29
SR = tested on: SR
K562 = tested on: K562
MOLT-4 = tested on: MOLT-4
CAKI-1 = tested on: CAKI-1
MDA-N = tested on: MDA-N
OVCAR-5 = tested on: OVCAR-5
M14 = tested on: M14
HL-60 = tested on: HL-60
EKVX = tested on: EKVX
KM12 = tested on: KM12
TK-10 = tested on: TK-10
786-0 = tested on: 786-0
CCRF-CEM = tested on: CCRF-CEM
NCI-H460 = tested on: NCI-H460
U-251 = tested on: U-251
LOX IMVI = tested on: LOX IMVI
RXF 393 = tested on: RXF 393
MDA-MB-435 = tested on: MDA-MB-435
SF-539 = tested on: SF-539
HOP-92 = tested on: HOP-92
UACC-62 = tested on: UACC-62
MCF7 = tested on: MCF7
COLO 205 = tested on: COLO 205
Malme-3M = tested on: Malme-3M
NCI-H23 = tested on: NCI-H23
HCT-116 = tested on: HCT-116
SF-268 = tested on: SF-268
OVCAR-8 = tested on: OVCAR-8
PC-3 = tested on: PC-3
SF-295 = tested on: SF-295
SW-620 = tested on: SW-620
HOP-62 = tested on: HOP-62
A549 = tested on: A549
SN12C = tested on: SN12C
OVCAR-3 = tested on: OVCAR-3
UO-31 = tested on: UO-31
IGROV-1 = tested on: IGROV-1
T47D = tested on: T47D
SNB-75 = tested on: SNB-75
OVCAR-4 = tested on: OVCAR-4
RPMI-8226 = tested on: RPMI-8226
DU-145 = tested on: DU-145
SK-MEL-2 = tested on: SK-MEL-2
SK-MEL-28 = tested on: SK-MEL-28
SNB-19 = tested on: SNB-19
A498 = tested on: A498
HCC 2998 = tested on: HCC 2998
Hs-578T = tested on: Hs-578T

Question: For `Cc1c(N2C(=O)/C(=C/C=C/c3ccccc3)N=C2c2ccccc2)c(=O)n(-c2ccccc2)n1C`, which GI50 (SK-OV-3) is on record?
Answer: 23 µM (inactive)

Question: What about the GI50 (MDA-MB-231) of the same molecule?
Answer: 22.1 µM (inactive)

Question: And the GI50 (NCI/ADR-RES)?
Answer: 21.7 µM (inactive)

Question: And the GI50 (BT-549)?
Answer: 20.1 µM (inactive)

Question: And the GI50 (UACC-257)?
Answer: 18.9 µM (inactive)

Question: And the GI50 (NCI-H226)?
Answer: 24.7 µM (inactive)

Question: And the GI50 (ACHN)?
Answer: 17.8 µM (inactive)

Question: And the GI50 (HCT-15)?
Answer: 5.45 µM

Question: What about the GI50 (SK-MEL-5) of the same molecule?
Answer: 16.3 µM (inactive)

Question: What about the GI50 (NCI-H522) of the same molecule?
Answer: 16 µM (inactive)

Question: And the GI50 (HT-29)?
Answer: 20.3 µM (inactive)

Question: What about the GI50 (SR) of the same molecule?
Answer: 17.4 µM (inactive)

Question: What about the GI50 (K562) of the same molecule?
Answer: 19 µM (inactive)

Question: What about the GI50 (MOLT-4) of the same molecule?
Answer: 14.9 µM (inactive)

Question: And the GI50 (CAKI-1)?
Answer: 37.8 µM (inactive)

Question: And the GI50 (MDA-N)?
Answer: 17.8 µM (inactive)

Question: What about the GI50 (OVCAR-5) of the same molecule?
Answer: 24.8 µM (inactive)

Question: And the GI50 (M14)?
Answer: 31.4 µM (inactive)

Question: And the GI50 (HL-60)?
Answer: 11.8 µM (inactive)

Question: And the GI50 (EKVX)?
Answer: 15.6 µM (inactive)

Question: What about the GI50 (KM12) of the same molecule?
Answer: 25.5 µM (inactive)

Question: What about the GI50 (TK-10) of the same molecule?
Answer: 32.9 µM (inactive)

Question: And the GI50 (786-0)?
Answer: 29.3 µM (inactive)

Question: What about the GI50 (CCRF-CEM) of the same molecule?
Answer: 27.2 µM (inactive)

Question: And the GI50 (NCI-H460)?
Answer: 29.4 µM (inactive)

Question: And the GI50 (U-251)?
Answer: 16.8 µM (inactive)

Question: What about the GI50 (LOX IMVI) of the same molecule?
Answer: 21.5 µM (inactive)

Question: And the GI50 (RXF 393)?
Answer: 17.9 µM (inactive)

Question: What about the GI50 (MDA-MB-435) of the same molecule?
Answer: 17 µM (inactive)

Question: What about the GI50 (SF-539) of the same molecule?
Answer: 21.3 µM (inactive)

Question: And the GI50 (HOP-92)?
Answer: 22.2 µM (inactive)

Question: And the GI50 (UACC-62)?
Answer: 16.4 µM (inactive)

Question: And the GI50 (MCF7)?
Answer: 28.8 µM (inactive)

Question: And the GI50 (COLO 205)?
Answer: 15.5 µM (inactive)

Question: And the GI50 (Malme-3M)?
Answer: 28.8 µM (inactive)

Question: And the GI50 (NCI-H23)?
Answer: 22 µM (inactive)

Question: What about the GI50 (HCT-116) of the same molecule?
Answer: 34.8 µM (inactive)

Question: What about the GI50 (SF-268) of the same molecule?
Answer: 22.6 µM (inactive)

Question: And the GI50 (OVCAR-8)?
Answer: 26.1 µM (inactive)

Question: What about the GI50 (PC-3) of the same molecule?
Answer: 25.6 µM (inactive)

Question: What about the GI50 (SF-295) of the same molecule?
Answer: 19.1 µM (inactive)

Question: And the GI50 (SW-620)?
Answer: 31.6 µM (inactive)

Question: And the GI50 (HOP-62)?
Answer: 26.5 µM (inactive)

Question: And the GI50 (A549)?
Answer: 25.6 µM (inactive)

Question: What about the GI50 (SN12C) of the same molecule?
Answer: 24.5 µM (inactive)

Question: What about the GI50 (OVCAR-3) of the same molecule?
Answer: 20.4 µM (inactive)

Question: What about the GI50 (UO-31) of the same molecule?
Answer: 18.4 µM (inactive)

Question: And the GI50 (IGROV-1)?
Answer: 16.3 µM (inactive)

Question: And the GI50 (T47D)?
Answer: 30.8 µM (inactive)

Question: What about the GI50 (SNB-75) of the same molecule?
Answer: 3.78 µM (inactive)

Question: And the GI50 (OVCAR-4)?
Answer: 17.8 µM (inactive)

Question: And the GI50 (RPMI-8226)?
Answer: 19.1 µM (inactive)

Question: And the GI50 (DU-145)?
Answer: 40.8 µM (inactive)

Question: And the GI50 (SK-MEL-2)?
Answer: 21.8 µM (inactive)

Question: How did the GI50 (SK-OV-3) turn out when `CCCCCCCc1c(Cl)nc(Cl)nc1Cl` was run?
Answer: 7.43 µM (inactive)

Question: And the GI50 (MDA-MB-231)?
Answer: 3.52 µM (inactive)

Question: And the GI50 (NCI/ADR-RES)?
Answer: 4.26 µM (inactive)

Question: What about the GI50 (UACC-257) of the same molecule?
Answer: 10.4 µM (inactive)

Question: And the GI50 (NCI-H226)?
Answer: 2.04 µM (inactive)

Question: And the GI50 (ACHN)?
Answer: 8.61 µM (inactive)

Question: What about the GI50 (HCT-15) of the same molecule?
Answer: 3.66 µM

Question: What about the GI50 (SK-MEL-5) of the same molecule?
Answer: 4.31 µM (inactive)

Question: And the GI50 (NCI-H522)?
Answer: 1.74 µM (inactive)

Question: And the GI50 (HT-29)?
Answer: 4.04 µM (inactive)

Question: What about the GI50 (SR) of the same molecule?
Answer: 0.604 µM (active)

Question: And the GI50 (K562)?
Answer: 2.06 µM (inactive)

Question: What about the GI50 (SK-MEL-28) of the same molecule?
Answer: 7.11 µM (inactive)

Question: And the GI50 (MOLT-4)?
Answer: 1.15 µM (inactive)

Question: What about the GI50 (CAKI-1) of the same molecule?
Answer: 2.38 µM (inactive)

Question: And the GI50 (MDA-N)?
Answer: 3.75 µM (inactive)

Question: What about the GI50 (OVCAR-5) of the same molecule?
Answer: 8.85 µM (inactive)

Question: What about the GI50 (M14) of the same molecule?
Answer: 2.13 µM (inactive)

Question: And the GI50 (HL-60)?
Answer: 2.45 µM (inactive)

Question: And the GI50 (EKVX)?
Answer: 8.77 µM (inactive)

Question: And the GI50 (KM12)?
Answer: 11.2 µM (inactive)

Question: And the GI50 (TK-10)?
Answer: 13.6 µM (inactive)

Question: And the GI50 (786-0)?
Answer: 3.56 µM (inactive)

Question: And the GI50 (CCRF-CEM)?
Answer: 0.494 µM (active)

Question: And the GI50 (NCI-H460)?
Answer: 12.8 µM (inactive)

Question: And the GI50 (U-251)?
Answer: 4.89 µM (inactive)

Question: What about the GI50 (LOX IMVI) of the same molecule?
Answer: 1.45 µM (inactive)

Question: What about the GI50 (RXF 393) of the same molecule?
Answer: 2.47 µM (inactive)

Question: And the GI50 (SNB-19)?
Answer: 11.2 µM (inactive)

Question: What about the GI50 (MDA-MB-435) of the same molecule?
Answer: 2.65 µM (inactive)

Question: And the GI50 (SF-539)?
Answer: 9.82 µM (inactive)

Question: What about the GI50 (HOP-92) of the same molecule?
Answer: 4.5 µM (inactive)

Question: What about the GI50 (UACC-62) of the same molecule?
Answer: 5.82 µM (inactive)

Question: And the GI50 (MCF7)?
Answer: 10.4 µM (inactive)

Question: And the GI50 (COLO 205)?
Answer: 5.25 µM (inactive)

Question: And the GI50 (A498)?
Answer: 20.1 µM (inactive)

Question: What about the GI50 (Malme-3M) of the same molecule?
Answer: 3.01 µM (inactive)

Question: What about the GI50 (NCI-H23) of the same molecule?
Answer: 3.72 µM (inactive)

Question: What about the GI50 (HCT-116) of the same molecule?
Answer: 2.63 µM (inactive)

Question: What about the GI50 (SF-268) of the same molecule?
Answer: 4.66 µM (inactive)

Question: And the GI50 (OVCAR-8)?
Answer: 2.36 µM (inactive)

Question: What about the GI50 (PC-3) of the same molecule?
Answer: 8.28 µM (inactive)

Question: And the GI50 (SF-295)?
Answer: 16.9 µM (inactive)

Question: And the GI50 (SW-620)?
Answer: 2.68 µM (inactive)

Question: And the GI50 (HOP-62)?
Answer: 18.6 µM (inactive)

Question: What about the GI50 (A549) of the same molecule?
Answer: 16.9 µM (inactive)

Question: What about the GI50 (HCC 2998) of the same molecule?
Answer: 5.81 µM (inactive)

Question: And the GI50 (SN12C)?
Answer: 2.05 µM (inactive)

Question: And the GI50 (OVCAR-3)?
Answer: 6.35 µM (inactive)

Question: What about the GI50 (UO-31) of the same molecule?
Answer: 5.82 µM (inactive)

Question: And the GI50 (Hs-578T)?
Answer: 6.28 µM (inactive)

Question: And the GI50 (IGROV-1)?
Answer: 2.29 µM (inactive)

Question: What about the GI50 (T47D) of the same molecule?
Answer: 12.2 µM (inactive)

Question: And the GI50 (SNB-75)?
Answer: 14.6 µM (inactive)

Question: And the GI50 (OVCAR-4)?
Answer: 2.87 µM (inactive)

Question: What about the GI50 (RPMI-8226) of the same molecule?
Answer: 2.84 µM (inactive)

Question: What about the GI50 (DU-145) of the same molecule?
Answer: 14.3 µM (inactive)
